Reference: the supplement of paper PMC10307832

Legend:
Assay in all cases: relative viability (nuclei count vs DMSO), 5 days (fraction); higher = more cells survive
Tosedostat + AZD7762 = compound: CC(C)C[C@@H](C(=O)N[C@H](C(=O)OC1CCCC1)c1ccccc1)[C@H](O)C(=O)NO [Tosedostat] + NC(=O)Nc1cc(-c2cccc(F)c2)sc1C(=O)N[C@H]1CCCNC1 [AZD7762] (partner 0.2 µM)
How it was run: (§1)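 Relative viability is defined as nuclei in treated wells over nuclei in vehicle wells. Duplicate plates were run and medians reported. Lung cancer cell lines in 1536-well plates were dosed by pin tool one day after seeding, with one drug or with a fixed anchor-drug dose plus five library-drug doses (not always all listed) in √10 steps, and nuclei were counted after 5 days.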

Tosedostat + Pemetrexed = compound: CC(C)C[C@@H](C(=O)N[C@H](C(=O)OC1CCCC1)c1ccccc1)[C@H](O)C(=O)NO [Tosedostat] + Nc1nc2[nH]cc(CCc3ccc(C(=O)N[C@@H](CCC(=O)O)C(=O)O)cc3)c2c(=O)[nH]1 [Pemetrexed] (partner 0.2 µM)
How it was run: as §1

[1] = compound: CC1=NN=C(O1)C2=NN=C(C=C2)N3CCC(CC3)OC4=C(C=CC(=C4)F)Cl + N=C(N)NC(=N)NCCc1ccccc1 [Phenformin] (partner 250 µM)
How it was run: as §1

Tosedostat + Tozasertib = compound: CC(C)C[C@@H](C(=O)N[C@H](C(=O)OC1CCCC1)c1ccccc1)[C@H](O)C(=O)NO [Tosedostat] + Cc1cc(Nc2cc(N3CCN(C)CC3)nc(Sc3ccc(NC(=O)C4CC4)cc3)n2)n[nH]1 [Tozasertib] (partner 0.1 µM)
How it was run: as §1

Cell Line | relative viability (Tosedostat + AZD7762; first compound 0.02 µM) | relative viability (Tosedostat + AZD7762; first compound 0.06325 µM) | relative viability (Tosedostat + AZD7762; first compound 0.2 µM) | relative viability (Tosedostat + AZD7762; first compound 0.6325 µM) | relative viability (Tosedostat + AZD7762; first compound 2 µM) | relative viability (Tosedostat + Pemetrexed; first compound 0.02 µM) | relative viability (Tosedostat + Pemetrexed; first compound 0.06325 µM) | relative viability (Tosedostat + Pemetrexed; first compound 0.2 µM) | relative viability (Tosedostat + Pemetrexed; first compound 0.6325 µM) | relative viability (Tosedostat + Pemetrexed; first compound 2 µM) | relative viability ([1]; first compound 0.253 µM) | relative viability ([1]; first compound 0.8 µM) | relative viability ([1]; first compound 2.53 µM) | relative viability ([1]; first compound 8 µM) | relative viability (Tosedostat + Tozasertib; first compound 0.02 µM) | relative viability (Tosedostat + Tozasertib; first compound 0.06325 µM) | relative viability (Tosedostat + Tozasertib; first compound 0.2 µM) | relative viability (Tosedostat + Tozasertib; first compound 0.6325 µM) | relative viability (Tosedostat + Tozasertib; first compound 2 µM)
RERF-LC-KJ | 1.12 | 1.08 | 1.08 | 0.912 | 0.664 | 0.49 | 0.499 | 0.51 | 0.486 | 0.466 | 0.389 | 0.434 | 0.466 | 0.392 | 0.553 | 0.462 | 0.403 | 0.304 | 0.293
SW 900 | 0.56 | 0.603 | 0.644 | 0.661 | 0.556 | 0.513 | 0.527 | 0.527 | 0.474 | 0.486 | – | – | 0.827 | 0.562 | 0.573 | 0.482 | 0.421 | 0.427 | 0.314
